In patent US10160747B2, “Compounds and methods for kinase modulation, and indications therefor” (Plexxikon Inc., priority 2016, dated 2018) one finds IC50 data, which are given here for eight molecules.

SMILES strings stand for the structures.

As a reminder, the IC50 is the concentration needed to halve the response being measured.

In one experiment the target is T1, FLT3-D835Y (Homo sapiens, UniProt P36888, D835Y).
T1 construct: purchased Invitrogen PV3967
T1 sequence (P36888 27-993 D835Y): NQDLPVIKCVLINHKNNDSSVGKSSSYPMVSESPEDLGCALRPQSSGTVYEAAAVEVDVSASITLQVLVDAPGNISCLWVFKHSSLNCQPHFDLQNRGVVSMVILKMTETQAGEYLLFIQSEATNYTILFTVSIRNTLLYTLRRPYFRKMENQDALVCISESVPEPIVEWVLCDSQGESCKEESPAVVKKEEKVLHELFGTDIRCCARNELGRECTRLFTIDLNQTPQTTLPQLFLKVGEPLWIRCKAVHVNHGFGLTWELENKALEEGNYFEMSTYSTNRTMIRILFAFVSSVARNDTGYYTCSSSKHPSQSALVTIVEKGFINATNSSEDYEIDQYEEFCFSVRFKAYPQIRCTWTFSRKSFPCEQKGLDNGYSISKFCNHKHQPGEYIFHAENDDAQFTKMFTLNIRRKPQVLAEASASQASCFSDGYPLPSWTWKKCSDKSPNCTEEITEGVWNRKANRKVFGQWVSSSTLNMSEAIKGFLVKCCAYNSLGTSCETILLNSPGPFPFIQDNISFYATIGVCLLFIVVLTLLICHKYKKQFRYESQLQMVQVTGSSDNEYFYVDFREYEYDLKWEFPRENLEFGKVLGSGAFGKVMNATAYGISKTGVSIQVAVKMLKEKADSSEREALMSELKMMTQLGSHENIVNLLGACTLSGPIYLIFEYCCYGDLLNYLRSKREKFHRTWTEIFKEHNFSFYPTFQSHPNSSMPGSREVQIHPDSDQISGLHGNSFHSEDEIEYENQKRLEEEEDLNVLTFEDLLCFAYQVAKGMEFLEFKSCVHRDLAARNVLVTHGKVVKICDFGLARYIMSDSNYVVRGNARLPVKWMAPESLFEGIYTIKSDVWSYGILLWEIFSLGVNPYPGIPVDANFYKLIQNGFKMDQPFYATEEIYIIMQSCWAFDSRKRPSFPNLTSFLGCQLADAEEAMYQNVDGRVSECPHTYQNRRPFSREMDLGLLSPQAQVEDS
Description: FLT3-D835Y recombinant enzyme kinase assay (AlphaScreen). Particulars: 8 pt, GMean. Type of experiment: biochemical. The essentials: (§1)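 Recombinant kinase phosphorylates 30 nM biotinylated poly(Glu4-Tyr) peptide; ATP is 10 μM for FLT3-ITD and FLT3-D835Y, 100 μM for c-KIT. Phosphotyrosine detected by AlphaScreen (streptavidin donor, PY20 acceptor beads, 10 μg/mL), 580 nm signal after 680 nm excitation; IC50 from signal decrease.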
(Bead proximity is the source of the signal in Alpha formats.)

The next experiment concerns the target T2, c-KIT (Homo sapiens, UniProt P10721).
T2 construct: purchased Millipore 14-559K
As to the kind of experiment: c-KIT recombinant enzyme kinase assay (AlphaScreen). Type of experiment: biochemical. As to conditions: 100 ATP, 8 pt. The essentials: as §1

T2 sequence (P10721 26-976): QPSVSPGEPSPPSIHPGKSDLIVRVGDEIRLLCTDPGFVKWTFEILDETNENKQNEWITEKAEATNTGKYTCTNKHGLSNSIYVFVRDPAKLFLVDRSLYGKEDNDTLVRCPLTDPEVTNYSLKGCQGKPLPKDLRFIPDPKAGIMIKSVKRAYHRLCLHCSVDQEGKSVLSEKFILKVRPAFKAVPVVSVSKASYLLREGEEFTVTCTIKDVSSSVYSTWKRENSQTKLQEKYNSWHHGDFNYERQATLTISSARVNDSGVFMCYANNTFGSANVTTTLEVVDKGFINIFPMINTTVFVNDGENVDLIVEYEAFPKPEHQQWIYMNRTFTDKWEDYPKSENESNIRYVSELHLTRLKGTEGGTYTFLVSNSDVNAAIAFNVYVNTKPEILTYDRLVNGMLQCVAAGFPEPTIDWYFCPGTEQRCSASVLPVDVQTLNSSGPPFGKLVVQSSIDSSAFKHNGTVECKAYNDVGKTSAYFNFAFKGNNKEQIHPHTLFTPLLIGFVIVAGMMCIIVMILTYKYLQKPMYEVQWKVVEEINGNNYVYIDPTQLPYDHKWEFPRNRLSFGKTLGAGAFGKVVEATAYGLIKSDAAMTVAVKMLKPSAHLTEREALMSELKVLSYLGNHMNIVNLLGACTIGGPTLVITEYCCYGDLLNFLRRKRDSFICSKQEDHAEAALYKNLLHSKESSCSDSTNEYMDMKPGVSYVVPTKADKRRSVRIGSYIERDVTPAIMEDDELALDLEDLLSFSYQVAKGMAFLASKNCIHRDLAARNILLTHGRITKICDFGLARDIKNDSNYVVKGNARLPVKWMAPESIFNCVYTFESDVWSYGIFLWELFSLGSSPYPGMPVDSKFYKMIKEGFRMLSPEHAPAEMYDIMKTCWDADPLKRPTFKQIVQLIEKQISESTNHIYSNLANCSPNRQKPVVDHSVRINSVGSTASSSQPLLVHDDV

In the case of `COCCn1cc(Nc2ncc(-c3ccc(CC(=O)Nc4cnc(Cl)c(C(F)(F)F)c4)c(F)c3)cn2)cn1` [Compound P-0266, N-[6-chloro-5-(trifluoromethyl)-3-pyridyl]-2-[2-fluoro-4-[2-[[1-(2-methoxyethyl)pyrazol-4-yl]amino]pyrimidin-5-yl]phenyl]acetamide], the concentration for half-maximal inhibition (IC50) on FLT3-D835Y and on c-KIT was 0.0001 to 10 µM in each case.

Take `COCCn1cc(Nc2ncc(-c3ccc(CC(=O)Nc4cncc(C(F)(F)F)c4)c(F)c3)cn2)cn1` [Compound P-0267, 2-[2-fluoro-4-[2-[[1-(2-methoxyethyl)pyrazol-4-yl]amino]pyrimidin-5-yl]phenyl]-N-[5-(trifluoromethyl)-3-pyridyl]acetamide]: the IC50 at FLT3-D835Y and at c-KIT was 0.0001 to 10 µM each time.

Consider `COCCn1cc(Nc2ncc(-c3ccc(CC(=O)Nc4ccc(C(F)(F)F)nc4)c(F)c3)cn2)cn1` [Compound P-0268, 2-[2-fluoro-4-[2-[[1-(2-methoxyethyl)pyrazol-4-yl]amino]pyrimidin-5-yl]phenyl]-N-[6-(trifluoromethyl)-3-pyridyl]acetamide], for which the half-maximal inhibitory concentration (IC50) on FLT3-D835Y and on c-KIT was 0.0001 to 10 µM throughout.

For the molecule `COCCn1cc(Nc2ncc(-c3ccc(CC(=O)Nc4ccc(C(F)(F)F)cn4)c(F)c3)cn2)cn1` [Compound P-0269, 2-[2-fluoro-4-[2-[[1-(2-methoxyethyl)pyrazol-4-yl]amino]pyrimidin-5-yl]phenyl]-N-[5-(trifluoromethyl)-2-pyridyl]acetamide], the IC50 on FLT3-D835Y and at c-KIT was 0.0001 to 10 µM throughout.

For the molecule `COCCn1cc(Nc2ncc(-c3ccc(CC(=O)Nc4cc(C(F)(F)F)ccn4)c(F)c3)cn2)cn1` [Compound P-0270, 2-[2-fluoro-4-[2-[[1-(2-methoxyethyl)pyrazol-4-yl]amino]pyrimidin-5-yl]phenyl]-N-[4-(trifluoromethyl)-2-pyridyl]acetamide], the IC50 on FLT3-D835Y and on c-KIT was 0.0001 to 10 µM each time.

As to `COCCn1cc(Nc2ncc(-c3ccc(CC(=O)Nc4cnc(OC)c(C(F)(F)F)c4)cc3)cn2)cn1` [Compound P-0271, 2-[4-[2-[[1-(2-methoxyethyl)pyrazol-4-yl]amino]pyrimidin-5-yl]phenyl]-N-[6-methoxy-5-(trifluoromethyl)-3-pyridyl]acetamide], the IC50 on FLT3-D835Y and on c-KIT was 0.0001 to 10 µM in each case.

Regarding `COCCn1cc(Nc2ncc(-c3ccc(CC(=O)Nc4ccc(C(F)(F)F)nc4)cc3)cn2)cn1` [Compound P-0273, 2-[4-[2-[[1-(2-methoxyethyl)pyrazol-4-yl]amino]pyrimidin-5-yl]phenyl]-N-[6-(trifluoromethyl)-3-pyridyl]acetamide], the IC50 on FLT3-D835Y and at c-KIT was 0.0001 to 10 µM each time.

Regarding `COCCn1cc(Nc2ncc(-c3ccc(CC(=O)Nc4ccc(C(F)(F)F)cn4)cc3)cn2)cn1` [Compound P-0274, 2-[4-[2-[[1-(2-methoxyethyl)pyrazol-4-yl]amino]pyrimidin-5-yl]phenyl]-N-[5-(trifluoromethyl)-2-pyridyl]acetamide], the IC50 on FLT3-D835Y and on c-KIT was 0.0001 to 10 µM each time.
